Experimental findings from patent US20230146795A1, “ENHANCEMENT OF ANTI-TUMOR ACTIVITY OF SHP2 INHIBITOR PYRIMIDINONE IN COMBINATION WITH NOVEL CANCER MEDICINES IN CANCERS” (TAIHO PHARMACEUTICAL CO., LTD., priority 2020, published 2023) are described below.

Usually IC50 stands for the point on the concentration scale where inhibition reaches its midpoint. A higher IC50 goes with weaker potency. Broadly, the T/C is the ratio of treated to control.

In assay [1] the target is T1, SHP2 (Homo sapiens, UniProt Q06124).
T1 sequence (Q06124 1-593): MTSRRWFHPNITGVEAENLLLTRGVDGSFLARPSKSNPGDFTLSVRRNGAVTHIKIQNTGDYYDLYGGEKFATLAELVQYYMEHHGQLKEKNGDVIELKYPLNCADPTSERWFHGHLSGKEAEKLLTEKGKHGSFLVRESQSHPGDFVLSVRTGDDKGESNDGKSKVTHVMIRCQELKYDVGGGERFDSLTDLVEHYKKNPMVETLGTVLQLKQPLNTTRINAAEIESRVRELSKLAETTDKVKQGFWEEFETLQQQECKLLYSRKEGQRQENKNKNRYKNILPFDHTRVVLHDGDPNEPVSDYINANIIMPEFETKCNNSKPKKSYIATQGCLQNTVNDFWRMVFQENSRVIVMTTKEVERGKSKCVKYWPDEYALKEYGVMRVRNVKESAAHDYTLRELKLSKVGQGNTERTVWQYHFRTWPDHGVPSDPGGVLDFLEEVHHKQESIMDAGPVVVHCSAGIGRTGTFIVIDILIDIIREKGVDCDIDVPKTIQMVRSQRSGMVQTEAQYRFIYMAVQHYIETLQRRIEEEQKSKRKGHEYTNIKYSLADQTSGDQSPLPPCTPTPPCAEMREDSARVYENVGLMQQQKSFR
The experiment in a line: SHP2 biochemical assay (DiFMUP conversion). Conditions: 10 pM SHP2, 0.25 μM pIRS1 peptide, 50 μM DiFMUP. The protocol:
(1) SHP2 Biochemical Assay SHP2 Activity was Monitored by Measuring the Conversion of the Surrogate Substrate 6,8-Difluoromethylumbelliferyl Phosphate (DiEMUP) to the Fluorescent Product, 6,8-Difluoromethylumbelliferone (DiFMU).
SHP2 was pre-incubated with test compounds and the activating peptide pIRS1 (H2N-LN(pY) IDLDLV-(PEG) 8-LST(pY)ASINFQK-amide) for 30 min, prior to addition of the 6,8-difluoromethylumbelliferyl phosphate (DiEMUP), (Thermo Fisher D6567). Final assay concentrations were 10 pM SHP2, 0.25 μM pIRS1 peptide, 50 μM DiFMUP, 25 mM Bis-Tris propane, pH 7.0, 150 mM NaCl, 0.05% (v/v) Tween-20, 0.5 mM TCEP and 5% (v/v) DMSO. Rates of reaction were then measured over 30 min by monitoring fluorescence on a BMG Pherastar reader at excitation 360 nm/emission 450 nm. IC50 values were calculated in singlicate from the normalized dose-response plots using four parameter logistic curve fit. The Experiment for each compound was carried out in one time or multiple times, and the IC50 values were shown as a single value (for a compound measured in a single experiment) or an average value (for a compound measured in multiple experiments).

Assay [2] deals with pERK levels in HCC827 cells. As to the kind of experiment: Cellular pERK inhibition assay (In-Cell Western). The class given is cell-based. As to conditions: Homo sapiens, relative IC50. The procedure:
pERK levels were determined using the In-Cell Western assay. HCC827 cells (ATCC, Manassas, USA) were seeded into 384-well plates at a density of 1×10^4 cells/well in RPMI1640 medium supplemented with 10% FBS and incubated 24 h. Compounds were diluted first in DMSO and then into serum-free medium, before being added to cells in quadruplicate to give a final concentration of 0.2% DMSO. Plates were incubated at 37° C. for the indicated time in a humidified atmosphere of 5% CO2 in air.
Following compound treatment, cells were fixed with formalin neutral buffer solution for 20 minutes at room temperature. Plates were washed three times with 0.1% Triton-X in PBS and cells were blocked for 1 hour with Odyssey blocking buffer (LI-COR, #927-40000). […] Levels of pERK were then expressed as percent of control, using DMSO treated samples as control. The relative IC50 values were calculated in quadruplicate from the normalized dose-response plots using four parameter logistic curve fit. The Experiment for each compound was carried out in one time or multiple times, and the IC50 values were shown as a single value (for a compound measured in a single experiment) or an average value (for a compound measured in multiple experiments).

Assay [3] concerns 97 cell lines harboring driver mutations in KRAS. As to the kind of experiment: In vitro cell line screening, 3D cultures (CellTiter-Glo 3D), KRAS panel. It is filed as cell-based, human. Conditions: sensitive = maximum inhibition greater than 50% relative to DMSO, max 3 μM Compound 1, 1 μM Compound 9, 120-hour incubation. The procedure:
(§1) The effect of Compound 1 in combination with an ERK inhibitor, Compound 9, on 97 cell lines harboring driver mutations in KRAS (G12A, G12C, G12F, G12R, G12S, G12V, G13C, G13D, A59G, Q61H, Q61K, Q61L or A146T) was assessed using the following technique. Cells from human cancer cells lines (from commercial sources such as ATCC or ECCAC) were grown as 3D cultures by seeding cells into round-bottom ultra-low attachment 96-well tissue culture plates (Corning) followed by centrifugation. Cells were allowed to recover for 16-24 hours prior to compound treatment. Compounds or dimethyl sulfoxide (DMSO) were added at various combinations of compound concentrations in a final DMSO concentration of up to 0.5% (v/v). Following a total of 120-hour incubation, CellTiter-Glo 3D Reagent(registered trademark) (Promega) was added. Plates were incubated for 10 minutes with gentle shaking at room temperature to lyse the cells, then incubated for further 40 minutes at room temperature to stabilize luminescence signal. After mixing, the mixture was transferred to a fresh plate and luminescence was determined on EnVision plate reader (Perkin Elmer).
(§2) For both 3D and 2D assays, the combination was tested as matrix of various concentrations of Compound 1 and Compound 9. The maximum concentrations of Compound 1 and Compound 9 used were 3 μM and 1 μM, respectively. Signals were normalized to that of the average of the DMSO control wells. […] For each cell line, the maximum % inhibition values were obtained for Compound 1 alone, Compound 9 alone and the combination of both compounds. The degree of drug interaction (i.e. synergy, additivity or antagonism) was quantified for each cell line by the Bliss independence model using the Synergyfinder R package (Ref: He L. et al. (2018) Methods for High-throughput Drug Combination Screening and Synergy Scoring. In: von Stechow L. (eds) Cancer Systems Biology. Methods in Molecular Biology, vol 1711. Humana Press, New York, N.Y.). For each cell line, a single score metric, the sum of synergy and antagonism across screened drug concentrations (SUM_SYN_ANT) (Ref: Di Veroli G. Y. et al (2016) Bioinformatics 32(18):2866-2868), was calculated. Synergy was defined as a score of 21 or above.
On the technique in general: Cellular ATP, detected with luciferase, serves as a proxy for viable cell number.

For assay [4], the system named is human pancreatic cancer cell line MIA PaCa-2 (KRAS mutation). The experiment in a line: Antitumor effect on MIA PaCa-2 tumor subcutaneously implanted to CB17 SCID mouse. The class given is in vivo. The protocol: MIA PaCa-2 cell line carries KRAS mutation.
A human pancreatic cancer line, MIA PaCa-2 (available from American Type Culture Collection), suspended in a mixture of PBS and Matrigel was subcutaneously implanted to male CB17 SCID mice at 7-10 weeks of age (Charles River UK) at 5×10^6 cells/100 μl/mouse. Tumors were measured with a pair of digital calipers, and tumor volumes (TV) were calculated by applying the formula for ellipsoid. Mice with TV of 146 to 360 mm^3 were assigned to study groups such that average TV was equal among groups.
Oral administration of Compound 1 or its vehicle, and Compound 9 or its vehicle was started on Day 1. Compound 1 was dissolved in an acidified solution of 0.5% (w/v) hydroxypropyl methylcellulose (Sigma) and administered via oral gavage at 6 or 12 mg/kg/day. Compound 9 was suspended in 20% (v/v) PEG200 (Sigma) and 0.5% (w/v) methylcellulose (Sigma) and administered via oral gavage at 50 mg/kg/day. All treatments were given once a day for 21 consecutive days, except for the combination group receiving 12 mg/kg of Compound 1 and 50 mg/kg of Compound 9, in which the animals were treated for 5 days per week for 3 weeks.
Antitumor effects were evaluated by comparing the median relative tumor volumes (RTV) between control- and treated groups. RTV was calculated by dividing TV on any test day by TV on Day 1, expressed as a percentage. T/C (%), as a measure of anti-tumor activity, was calculated by dividing median RTV values of each compound-administered group by median RTV of the control group receiving both vehicles.

Assay [5] relates to 491 cell lines. The experiment in a line: In vitro cell line screening, both panels overall. It is filed as cell-based, human. As to conditions: Total panel, sensitive = maximum inhibition greater than 50% relative to DMSO, max 3 μM Compound 1, 1 μM Compound 9, 120-hour incubation. The procedure:
as §1, with “Cells” for “The effect of Compound 1 in combination with an ERK inhibitor, Compound 9, on 97 cell lines harboring driver mutations in KRAS (G12A, G12C, G12F, G12R, G12S, G12V, G13C, G13D, A59G, Q61H, Q61K, Q61L or A146T) was assessed using the following technique. Cells”
(§3) Cells from human cancer cells lines (from commercial sources such as ATCC or ECCAC) were grown as 2D monolayers by seeding onto flat-bottom 96-well tissue culture plates (Corning). Cells were allowed to recover for 16-24 hours prior to compound treatment. Compounds or dimethyl sulfoxide (DMSO) were added at various combinations of compound concentrations in a final DMSO concentration of up to 0.5% (v/v). Following a total of 120-hour incubation, CellTiter-Glo reagent(registered trademark) (Promega) was added. Plates were incubated for 10 minutes with gentle shaking at room temperature to lyse the cells, then incubated for further 10 minutes at room temperature to stabilize luminescence signal. After mixing, the mixture was transferred to a fresh plate, and luminescence was determined on EnVision plate reader (Perkin Elmer).
as §2

The subject of assay [6] is 394 cell lines that do not depend on KRAS. The experiment in a line: In vitro cell line screening, 2D monolayers (CellTiter-Glo), KRAS-independent panel. The class given is cell-based, human. Conditions: Non-KRAS panel, sensitive = maximum inhibition greater than 50% relative to DMSO, max 3 μM Compound 1, 1 μM Compound 9, 120-hour incubation. The procedure:
as §3, §2

On to `CCn1cc2c(Cl)c(-c3c[nH]c4nc(N5C[C@H]6CC[C@@H]5[C@@H]6N)n(C)c(=O)c34)ccc2n1` [Compound 3, 2-((1R,4R,7R)-7-amino-2-azabicyclo[2.2.1]heptan-2-yl)-5-(4-chloro-2-ethyl-2H-indazol-5-yl)-3-methyl-3,7-dihydro-4H-pyrrolo[2,3-d]pyrimidin-4-one], for which the results for the half-inhibitory concentration (IC50) in assay [1] and in assay [2] were 4 nM and 35 nM, respectively.
`COc1cc(F)cc([C@@H](CO)NC(=O)[C@@H](C)N2Cc3ccc(-c4nc(NC5CCOCC5)ncc4Cl)cc3C2=O)c1` [Compound 9, (2R)-2-(6-{5-chloro-2-[(oxan-4-yl)amino]pyrimidin-4-yl}-1-oxo-2,3-dihydro-1H-isoindol-2-yl)-N-[(1S)-1-(3-fluoro-5-methoxyphenyl)-2-hydroxyethyl]propanamide]: the “Number of cell lines sensitive” value in assay [3] was 80; in assay [5], 284; in assay [6], 204. The “Number of cell lines sensitive (% of total)” value is 82.5% in assay [3], 57.8% in assay [5] and 51.8% in assay [6]. Moreover, the “partial regression (tumor shrinkage of 50% or above), mice” value in assay [4] (Compound 9 alone 50 mg/kg/day) is 1 out of 8. The T/C in assay [4] (Compound 9 alone 50 mg/kg/day oral, once a day, Day 18) was determined as 29%. In assay [4] (Compound 9 alone 50 mg/kg/day, during the treatment period), the tumor response entry is “tumor stasis”.
